In patent US7064124B2, “NF-κB inhibitor containing substituted benzoic acid derivative as active ingredient” (Daiichi Suntory Pharma Co., Ltd., priority 2001, dated 2006):

Legend:
[1] = tested on: GalN/LPS-stimulated C3H/HeN female mice; assay: Sepsis model (GalN/LPS), compound given orally; format: in vivo, mouse; conditions: oral 10, 30 or 100 mg/kg 10 min before GalN/LPS, vs vehicle group; for TNF-α mRNA levels in liver: liver 60 min after stimulant, real-time PCR; for TNF-α levels in plasma: plasma 90 min after stimulant, ELISA
Experimental: Similarly to Experiment 2, a mixed solution of GalN (20 mg) and LPS (2 μg) was intraperitoneally administered as a stimulant to a 7-week-old C3H/HeN female mice. Ten minutes before that, the compound of Example 112 or the compound of Example 157 each suspended in a vehicle (0.5% HPC) was orally administered to give a dose of 10 mg/kg, 30 mg/kg or 100 mg/kg. The TNF-α mRNA levels in liver 60 minutes after the administration of stimulant were measured by the real-time PCR method, and the TNF-α levels in plasma after 90 minutes were measured using the mouse TNF-α ELISA kit. The comparison with the vehicle group was performed by the Dunnett's Multiple Comparison test using Stat-View.

NF-κB = NF-κB luciferase reporter assay in A549/NF-κBLuc cells stimulated with IL-1β; format: cell-based, human; conditions: Homo sapiens, A549, A549/NF-κBLuc cells; compound added 1 hour before IL-1β, then 3 hours incubation; luciferase activity; read-out: NF-κB Inhibitory Activity (IC50)
Summary of the method: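 A549 cells stably carrying an NF-κB-driven luciferase reporter (pNFκB-Luc, G418-selected) pre-treated with compound for 1 h, then stimulated with IL-1β and incubated a further 3 h. Luciferase signal used to derive IC50 for NF-κB inhibition.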

[2] = tested on: carrageenin-induced foot edema in Wister male rat; assay: Acute inflammation model: carrageenin foot edema, compound given orally; format: in vivo; conditions: oral 100 mg/kg immediately after carrageenin; foot volume 2 hours after carrageenin; vs vehicle group
Experimental: The foot edma ratio was calculated according to the formula: (volume of foot after administration of carrageenin−volume of foot before administration)/volume of foot before administration×100, and shown by the average of foot edma ratio +/−SE.
On the footpad of the right hind leg of a 5-week-old Wister male rat, 0.1 ml of 1 w/v % λ-carrageenin (Sigma) was subcutaneously administered. Immediately thereafter, the compound of Example 112 or the compound of Example 157 each suspended in a vehicle (0.5% HPC) was orally administered to give a dose of 100 mg/kg. As a positive control, indomethacin (sigma) was orally administered to give a dose of 10 mg/kg. The foot edema ratio was calculated according to the formula: (volume of foot 2 hours after administration of carrageenin−volume of foot before administration)/volume of foot before administration×100, using a volume meter (TK-101, manufactured by Unicom). For the comparison between the vehicle group and the drug administered group, a variance test was performed by the F-test and thereafter, Student's t test was performed when the variance was equal, or Aspin-Welch's t test was performed when the variance was not equal.

[3] = tested on: GalN/LPS-stimulated C3H/HeN female mice; assay: In vivo sepsis model (GalN/LPS), compound given intraperitoneally; design: species or system mouse; conditions: i.p. 10, 30 or 100 mg/kg immediately after GalN/LPS, vs vehicle group
Experimental: A mixed solution of N-acetyl galactosamine (GalN, 20 mg, Sigma) and lipopolysaccharide (LPS, 5 μg, Sigma) was intraperitoneally administered as a stimulant to a 7-week-old C3H/HeN female mice and immediately thereafter, the compound of Example 112 suspended in a vehicle (0.5% hydroxypropyl cellulose (HPC), produced by Nippon Soda Co., Ltd.) was intraperitoneally administered to give a dose of 10 mg/kg, 30 mg/kg or 100 mg/kg. The TNF-α mRNA levels and the IL-1β mRNA levels in liver 60 minutes after the administration of stimulant each was measured by the real-time PCR method, and the TNF-α levels in plasma after 90 minutes were measured using the mouse TNF-α ELISA kit (Biosource). In the real-time PCR using PRISM7700 (PE Biosystems Japan) according to the protocol of PCR quantitative System (PE Biosystems Japan), mRNA was extracted from the liver and the TNF-α and IL-1β were detected with cDNA obtained by SuperScript Preamplification System (Lifetech Orient) as a template. For the detection, the following primers and TaqMan probes were used.
The RNA level in each sample was corrected by the expression level of glyceraldehyde 3-phosphate dehydrogenase (GAPDH) gene.
ELISA was performed according to the manual included in the kit. The comparison with the vehicle group was performed by the Dunnett's Multiple Comparison test using Stat-View (SAS Institute).

[4] = liver 60 min after stimulant, real-time PCR

| Structure (SMILES) | melting point [°C] | TNF-α mRNA levels in liver [1] | TNF-α levels in plasma [1] | IC50 (NF-κB) | acute inflammation (foot edema) caused by carrageenin [2] | IL-1β mRNA levels in liver [3, 4] | TNF-α mRNA levels in liver [3, 4] | TNF-α levels in plasma ([3]; plasma 90 min after stimulant, ELISA) |
| --- | --- | --- | --- | --- | --- | --- | --- | --- |
| COC1=C(OC)C(=O)C(Cc2ccc(O)c(C(=O)Nc3ccncc3)c2)=C(C)C1=O [Example 157, N-(Pyridin-4-yl)-5-(5,6-dimethoxy-3-methyl-1,4-benzoquinon-2-yl)methyl-2-hydroxybenzamide] | 171 to 172.5 | suppressed dose dependently | suppressed dose dependently | 7 µg/mL | significantly suppressed | – | – | – |
| COC1=C(OC)C(=O)C(Cc2ccc(OC(C)=O)c(C(=O)Nc3ccc(C(F)(F)F)cc3)c2)=C(C)C1=O [Example 112, N-[5-(5,6-Dimethoxy-3-methyl-1,4-benzoquinon-2-yl)methyl-2-acetoxybenzoyl]-4-trifluoromethylaniline] | – | suppressed dose dependently | suppressed dose dependently | 14 µM | significantly suppressed | suppressed | suppressed dose dependently | suppressed dose dependently |
